From patent US10889849B2, “Oxidized glutathione assay” (PROMEGA CORPORATION, priority 2010, dated 2021)

Legend:
Assay type in all cases: cell-based
A549 cells [1] = assay: Measurements of cell lysis (LDH release and ATP levels); details: menadione treatment, data not shown
Source text: From the data in Table 7 and FIG. 9, it is clear that measurement of GSSG in the media alone would have indicated some effect of the menadione treatment on the cells.

Jurkat cells = assay: Determination of GSH:GSSG ratio in Jurkat cells; details: 60 minutes with 40 uM menadione
Protocol: Suspension cells, such as Jurkat or […], are washed in Krebs-Ringer, Krebs-Henseleit, or Hank's Balanced Salts (HBSS) buffers to remove traces of medium and serum. Cells are then counted and diluted in one of the above buffers at the desired density. For Jurkat cells, 10,000 to 20,000 cells/well were used. 20 μl of cell suspension (at the desired density) were then added to wells of a 96-well plate. Enough wells with cells were plated for test compound treatment, vehicle-only treatment and no treatment controls. […]
(§1) Compound treatment was removed and discarded from the adherent cells. […] Again, the plated was shook briefly, incubated at room temperature for 10 min, and luminescence read.
(§2) The […] is calculated by dividing the moles of GSH in a sample by the moles of GSSG in a sample. Because each mole of GSSG produces two moles of GSH, and the assay produces a signal from all of the GSH produced by reduction of GSSG, a 2-fold adjustment is required in the number of moles of GSH quantified by the GSH standard curve.
(§3) For background, the luminescence (RLUs) generated from no cell control or 0 μM GSH from the standard curve was used. […] The GSH/GSSG ratio for untreated cells was calculated using the formula: […]
iv. […] GSSG and GSH were detected by the method described in A. The ratio GSH/GSSG was calculated as described in B

HepG2 cells = assay: Determination of GSH:GSSG ratio in HepG2 cells; details: HepG2 cells, 5,000 cells/well, 60 minutes with 40 uM menadione
Protocol: (§4) The assay is optimized for low cell densities such as HeLa or HepG2 cells at 5,000-10,000 cells per well and hepatocytes at 10,000 to 20,000 cells/well. HeLa or HepG2 cells were plated on Corning Costar 3903 96-well flat bottom tissue culture-treated white with clear bottom. Hepatocytes were plated on BD BioCoat™ 4650 96-well Collagen 1 Cellware. Hepatocytes were cultured with vendor recommended hepatocyte media. If clear walled tissue culture plates are used, a transfer step must be performed after Luciferase Detection Reagent (LDR) addition to get the reactions into luminometer plates. Plate cells and incubate overnight at 37° C. in a 5% CO2 culture incubator.
(§5) Menadione is a Reactive Oxygen Species (ROS) inducer and is used as a positive control. 40 μM Menadione was prepared in Krebs-Ringer, Krebs-Henseleit, or Hank's Balanced Salts (HBSS) buffers. Other buffers […] to dilute the Menadione as components of cell culture media, such as serum, phenol red, and cysteine, can interfere with the assay chemistry. No treatment controls (vehicle only) were performed by exchanging the culture media on the cells with buffer+ vehicle at the same time as treating the cells with Menadione.
(§6) The below reagent was prepared for measurement of GSSG. […]
as §1, §2, §3
iii. […] GSSG and GSH were detected by the method described in A. The ratio GSH/GSSG was calculated as described in B.

Rat hepatocytes = assay: Determination of GSH:GSSG ratio in rat hepatocytes; details: Rat hepatocytes, 20,000 cells/well, 60 minutes with 40 uM menadione
Protocol: as §4
as §5, with “Menadione. […]” for “Menadione.”
as §1, §2, §3
ii: Rat hepatocytes, 20,000 cells/well, were treated as in i. GSSG and GSH were detected by the method described in A. The ratio GSH/GSSG was calculated as described in B.

A549 cells [2] = assay: Detection of reactive oxygen effects by sampling media (GSSG and GSH in cells and media); details: 1 hour
Protocol: A549 cells were plated at a density of 5,000 cells per well in a 96-well tissue culture plate in 100 ul of DMEM with 10% fetal calf serum and incubated for 48 hours at 37° C. with 10% CO2. After incubation, the media was removed, discarded, and replaced with HBSS buffer with or without 40 uM menadione. The plate was then incubated for 1 hour at 37° C. with 10% CO2.
After the 1 hour treatment, the HBSS buffer from the cells was transferred to a fresh, 96-well plate. The cells were then given 100 ul of fresh HBSS buffer and a concentrated solution of PLB with or without NEM. The following conditions (in triplicate) resulted from these manipulations: • 1. Cell GSH and GSSG were measured from the lysate of cells where the vehicle or menadione treatment with HBSS buffer was removed prior to lysis. • 2. Media GSH and GSSG were measure from the HBSS buffer transferred from the cells. • 3. Total GSH and total GSSG were measured from the lysate of cells treated with HBSS buffer where the HBSS buffer was not removed prior to addition of PLB.
For measurement of GSSG, samples were given a mixture containing GST-22, 25 mM NEM, and 1× Passive Lysis Buffer. For measurement of GSH, samples were given a mixture containing GST-22 and 1× Passive Lysis Buffer. Samples were incubated for 5 minutes at room temperature, and 25 μl LDR with 100 mM DTT and GST added. Samples were then incubated for 30 minutes at room temperature, and 150 μl LDR added. Luminescence was detected after 15 minute room temperature incubation.
It should be noted that one could expect the total glutathione species from the media and the cells to be about equal to the total well measurement. This calculation is shown in the third row of Table 7. The ratio of GSH to GSSG was also determined (FIG. 10).

HeLa cells = assay: Determination of GSH:GSSG ratio in HeLa cells; details: HeLa cells, 5,000 cells/well, 60 minutes with 40 uM menadione
Protocol: as §4, §5, §6, §1, §2, §3
i. […] GSSG and GSH were detected by the method described in A. The ratio GSH/GSSG was calculated as described in B.

[3] = 40 uM menadione in HBSS, HBSS buffer transferred from the cells
[4] = 40 uM menadione in HBSS, lysate of cells, buffer removed prior to lysis
[5] = 40 uM menadione, HBSS buffer not removed prior to addition of PLB
[6] = 40 uM menadione, calculated sum of cell and media

SMILES: CC1=CC(=O)c2ccccc2C1=O [Menadione]
- Cell lysis (LDH release and ATP levels) (A549 cells [1]): did not suggest that any lysis had taken place
- Ratio-Treated (GSH/GSSG) (Jurkat cells; Jurkat cells, 10,000 cells/well): 3.8
- Ratio-Treated (GSH/GSSG) (Jurkat cells; Jurkat cells, 20,000 cells/well): 3.6
- Ratio GSH/GSSG, treated (HepG2 cells): 1.5
- Treated Net RLU, GSH (HepG2 cells): 4162074 RLU
- Treated Net RLU, GSSG (HepG2 cells): 2364652 RLU
- Ratio GSH/GSSG, treated (Rat hepatocytes): 1.1
- Treated Net RLU, GSH (Rat hepatocytes): 10722488 RLU
- Treated Net RLU, GSSG (Rat hepatocytes): 6900404 RLU
- GSH, averaged RLU, Media (A549 cells [2]; [3]): 3,491,077 RLU
- GSSG, averaged RLU, Media (A549 cells [2]; [3]): 2,494,444 RLU
- GSH, averaged RLU, Cell (A549 cells [2]; [4]): 10,613,488 RLU
- GSSG, averaged RLU, Cell (A549 cells [2]; [4]): 464,099 RLU
- GSH, averaged RLU, Total Well (A549 cells [2]; [5]): 12,903,498 RLU
- GSSG, averaged RLU, Total Well (A549 cells [2]; [5]): 3,189,598 RLU
- GSH, RLU, Total (Cell + Media) (A549 cells [2]; [6]): 14,104,565 RLU
- GSSG, RLU, Total (Cell + Media) (A549 cells [2]; [6]): 2,958,543 RLU
- Ratio GSH/GSSG, treated (HeLa cells): 2.2
- Treated Net RLU, GSH (HeLa cells): 12364719 RLU
- Treated Net RLU, GSSG (HeLa cells): 5894364 RLU
